The values that follow come from patent publication US10202403B2, “Macrocyclic benzofuran compounds for the treatment of hepatitis C” (BRISTOL-MYERS SQUIBB COMPANY, priority 2014, dated 2019).

One may read the EC50 as the midpoint of the concentration-response curve. Read a low EC50 as an effect from little substance.

One series has as its system genotype 1b (Con-1) HCV replicon. Briefly: HCV replicon luciferase assay. The series is classed as cell-based, HCV genotype 1b (Con-1) in human Huh-7 cells. The conditions noted are these: Hepatitis C virus, 72 h; genotype 1b replicon, Huh-7, Renilla luciferase, 3 days incubation. The procedure:
Cell Lines. The cell lines used to evaluate compounds consist of a human hepatocyte derived cell line (Huh-7) that constitutively expresses a genotype 1b (Con-1) HCV replicon or a genotype 1b (Con-1) HCV replicon with an asparagine replacing the cysteine at amino acid 316, or a genotype 2a (JFH-1) replicon, containing a Renilla luciferase reporter gene. These cells were maintained in Dulbecco's modified Eagle medium (DMEM) containing 10% FBS, 100 U/mL penicillin/streptomycin and 1.0 mg/mL G418.
HCV replicon luciferase assay.To evaluate compound efficacy, titrated compounds were transferred to sterile 384-well tissue culture treated plates, and the plates were seeded with HCV replicon cells (50 μL at a density of 2.4×10^3 cells/well) in DMEM containing 4% FBS (final DMSO concentration at 0.5%). After 3 days incubation at 37° C., cells were analyzed for Renilla Luciferase activity using the EnduRen substrate (Promega cat #E6485) according to the manufacturer's directions. Briefly, the EnduRen substrate was diluted in DMEM and then added to the plates to a final concentration of 7.5 μM. The plates were incubated for at least 1 hour at 37° C., then read on a Viewlux Imager (PerkinElmer) using a luminescence program. The 50% effective concentration (EC50) was calculated using the four-parameter logistic formula noted above.
On the technique in general: In antiviral work, replicon cells carry a viral genome segment that copies itself.
In turn, `CNC(=O)c1c(-c2ccc(F)cc2)oc2ccc3c(c12)CC=CCO3` [Compound 1001] had an EC50 of 2.08 µM. Same read-out and setting: the result for `C=CC1Cc2c(ccc3oc(-c4ccc(F)cc4)c(C(=O)NC)c23)O1` (centres unmarked) [Compound 1002] reads 0.672 µM.

In turn, `CNC(=O)c1c(-c2ccc(F)cc2)oc2ccc3c(c12)Cc1ccccc1-c1ccccc1CO3` [Compound 1003] showed a concentration giving a half-maximal response (EC50) of 2.84 µM. With `CNC(=O)c1c(-c2ccc(F)cc2)oc2ccc3c(c12)Cc1cccc2cccc(c12)CO3` [Compound 1004], the EC50 was > 10 µM. The same measure, in the same setting: the same measure for `CNC(=O)c1c(-c2ccc(F)cc2)oc2ccc3c(c12)CCc1cccc(c1)CCO3` [Compound 1005]: > 10 µM.

In the case of `CNC(=O)c1c(-c2ccc(F)cc2)oc2ccc3c(c12)CCOCCOCCO3` [Compound 1006], the EC50 is > 10 µM.

`CNC(=O)c1c(-c2ccc(F)cc2)oc2ccc3c(c12)CCCCCCO3` [Compound 1007] returned a 50% effective concentration (EC50) of 1.29 µM.

The compound `CNC(=O)c1c(-c2ccc(F)cc2)oc2ccc3c(c12)CCCCCCCO3` [Compound 1008] returned a half-maximal effective concentration (EC50) of 1.82 µM. `CNC(=O)c1c(-c2ccc(F)cc2)oc2ccc3c(c12)CCCCCCCCO3` [Compound 1009] returned an EC50 of 2.08 µM. On to `CNC(=O)c1c(-c2ccc(F)cc2)oc2ccc3c(c12)CCCCCCCCCO3` [Compound 1010], for which the EC50 is 1.63 µM. Take `CNC(=O)c1c(-c2ccc(F)cc2)oc2ccc3c(c12)CCCCCCCCCCO3` [Compound 1011]: the EC50 stood at 1.08 µM.

`CNC(=O)c1c(-c2ccc(F)cc2)oc2ccc3c(c12)CCCCCCCCCCCO3` [Compound 1012] came in with an EC50 of 0.53 µM. Still for that read-out and setting: the same measure for `CNC(=O)c1c(-c2ccc(F)cc2)oc2ccc3c(c12)CCCCCCCCCCCCO3` [Compound 1013]: 1.51 µM; for `CNC(=O)c1c(-c2ccc(F)cc2)oc2ccc3c(c12)CCN(S(=O)(=O)c1ccc(C)cc1)CCO3` [Compound 1014]: > 10 µM. The same measure, in the same setting: the result for `CNC(=O)c1c(-c2ccc(F)cc2)oc2ccc3c(c12)Cc1cccc(n1)COc1ccc2oc(-c4ccc(F)cc4)c(C(=O)NC)c2c1Cc1cccc(n1)CO3` [Compound 2001] reads 6.67 µM; that for `C=C1COc2ccc3oc(-c4ccc(F)cc4)c(C(=O)NC)c3c2CC(=C)COc2ccc3oc(-c4ccc(F)cc4)c(C(=O)NC)c3c2C1` [Compound 2002], 3.65 µM; that for `CNC(=O)c1c(-c2ccc(F)cc2)oc2ccc3c(c12)Cc1cccc(c1)COc1ccc2oc(-c4ccc(F)cc4)c(C(=O)NC)c2c1Cc1cccc(c1)CO3` [Compound 2004], > 10 µM. On the same count and under the same terms, the result for `CNC(=O)c1c(-c2ccc(F)cc2)oc2ccc3c(c12)CC1(CC1)COc1ccc2oc(-c4ccc(F)cc4)c(C(=O)NC)c2c1CC1(CC1)CO3` [Compound 2005] reads 0.931 µM.

In the next series the test system is HCV.
Experiment: not given
The conditions noted are these: extended dosing of the combination regimens; development suspended; cited from earlier work.
`CNC(=O)c1c(-c2ccc(F)cc2)oc2cc(N(CCO)S(C)(=O)=O)c(C3CC3)cc12` [HCV-796]: the hepatic toxicity result is listed as “hepatic toxicity observed”.

Still in this series, the particulars now being: patients; single agent: transient decrease then rebound; more robust drop with interferon and ribavirin; cited from earlier work.
Turning to `CNC(=O)c1c(-c2ccc(F)cc2)oc2cc(N(CCO)S(C)(=O)=O)c(C3CC3)cc12` [HCV-796], the “HCV RNA levels in patients” value is “reduce HCV RNA levels in patients”.
